Test results: ChEMBL document CHEMBL1159211, “Antifungal evaluation of pseudolaric acid B, a major constituent of Pseudolarix kaempferi” (J Nat Prod, 1995)
≈ marks a conversion by molar mass, not a printed value.

Experiments:
Candida albicans [1] = experiment: Antimicrobial activity against Candida albicans at 1 mg/mL by agar-well diffusion assay; format: functional
Aspergillus fumigatus = experiment: Antimicrobial activity against Aspergillus fumigatus at 1 mg/mL by agar-well diffusion assay; format: functional
[2] = test system: Trichophyton mentagrophytes; experiment: Antimicrobial activity against Trichophyton mentagrophytes at 1 mg/mL by agar-well diffusion assay; format: functional
Nannizzia gypsea = experiment: Antimicrobial activity against Microsporum gypseum at 1 mg/mL by agar-well diffusion assay; format: functional
Candida albicans [3] = experiment: Antifungal activity against Candida albicans B311 at 1 mg/mL by agar-well diffusion assay; format: functional
Candida albicans [4] = experiment: Antifungal activity against Candida albicans ATCC 10231 at 1 mg/mL by agar-well diffusion assay; format: functional
Starmerella magnoliae = experiment: Antifungal activity against Candida magnoliae ATCC 12573 at 1 mg/mL by agar-well diffusion assay; format: functional
Candida parapsilosis [5] = experiment: Antifungal activity against Candida parapsilosis ATCC 20224 at 1 mg/mL by agar-well diffusion assay; format: functional
Candida albicans [6] = experiment: Antifungal activity against Candida stellatoidea SA-I at 1 mg/mL by agar-well diffusion assay; format: functional
Candida tropicalis [7] = experiment: Antifungal activity against Candida tropicalis ATCC 20326 at 1 mg/mL by agar-well diffusion assay; format: functional
Candida tropicalis [8] = experiment: Antifungal activity against Candida tropicalis ATCC 20021 at 1 mg/mL by agar-well diffusion assay; format: functional
Candida tropicalis [9] = experiment: Antifungal activity against Candida tropicalis LM 64 at 1 mg/mL by agar-well diffusion assay; format: functional
Yarrowia deformans [10] = experiment: Antifungal activity against Torulopsis petrophilum ATCC 20225 at 1 mg/mL by agar-well diffusion assay; format: functional
Torula [11] = experiment: Antifungal activity against Torula cremoris NRRL 7495 at 1 mg/mL by agar-well diffusion assay; format: functional
Candida albicans [12] = experiment: Antifungal activity against Candida albicans B311 by twofold serial broth dilution method; format: functional
Candida albicans [13] = experiment: Antifungal activity against Candida albicans ATCC 10231 by twofold serial broth dilution method; format: functional
Candida parapsilosis [14] = experiment: Antifungal activity against Candida parapsilosis ATCC 20224 by twofold serial broth dilution method; format: functional; conditions: Lodderomyces parapsilosis
Candida albicans [15] = experiment: Antifungal activity against Candida stellatoidea SA-I by twofold serial broth dilution method; format: functional
Candida tropicalis [16] = experiment: Antifungal activity against Candida tropicalis ATCC 20326 by twofold serial broth dilution method; format: functional
Candida tropicalis [17] = experiment: Antifungal activity against Candida tropicalis ATCC 20021 by twofold serial broth dilution method; format: functional
Candida tropicalis [18] = experiment: Antifungal activity against Candida tropicalis LM 64 by twofold serial broth dilution method; format: functional
Yarrowia deformans [19] = experiment: Antifungal activity against Torulopsis petrophilum ATCC 20225 by twofold serial broth dilution method; format: functional
Torula [20] = experiment: Antifungal activity against Torula cremoris NRRL 7495 by twofold serial broth dilution method; format: functional
Mus musculus [21] = experiment: Toxicity in CD1 mouse assessed as body weight at 40 mg/kg, ip after day 1; format: organism-based; design: dose 40 mg/kg, route intraperitoneal; conditions: in vivo
Mus musculus [22] = experiment: Toxicity in CD1 mouse assessed as body weight at 40 mg/kg, ip administered for 14 consecutive days measured after day 14; format: organism-based; design: dose 40 mg/kg, route intraperitoneal; conditions: in vivo
Mus musculus [23] = experiment: Toxicity in CD1 mouse assessed as body weight at 40 mg/kg, ip administered for 14 consecutive days measured after day 21; format: organism-based; design: dose 40 mg/kg, route intraperitoneal; conditions: in vivo
[24] = test system: Mycobacterium intracellulare; experiment: Antimicrobial activity against Mycobacterium intracellular at 1 mg/mL by agar-well diffusion assay; format: functional; conditions: read-out: IZ
[25] = Toxicity in iv dosed CD1 mouse; format: organism-based; conditions: in vivo
[26] = Toxicity in ip dosed CD1 mouse; format: organism-based; conditions: in vivo
Mus musculus [27] = experiment: Toxicity in CD1 mouse assessed as unusual behavioral changes at 40 mg/kg, ip administered for 14 consecutive days measured daily for 4 weeks; format: organism-based; design: dose 40 mg/kg, route intraperitoneal; conditions: in vivo, 672 h
Candida albicans [28] = experiment: (§1) Antifungal activity against Candida albicans NIH B311 infected in mouse assessed as reduction in number of recovered colony-forming units assessed per mg of kidney at 20 mg/kg, iv administered 18 and 42 hrs after infection measured 16 hrs after final injection by tenfold serial dilution method relative to control; format: functional; design: scale not given: the % may be the effect or the level left
Candida albicans [29] = experiment: as §1, with “10” for “20”; format: functional; design: scale not given: the % may be the effect or the level left
Candida albicans [30] = experiment: as §1, with “mg/kg, sc” for “mg/kg, iv”, “administered 7” for “administered 18”, “and 24” for “and 42”; format: functional; design: scale not given: the % may be the effect or the level left; conditions: route subcutaneous
Candida albicans [31] = experiment: as §1, with “at 10” for “at 20”, “mg/kg, sc” for “mg/kg, iv”, “administered 7” for “administered 18”, “and 24” for “and 42”; format: functional; design: scale not given: the % may be the effect or the level left; conditions: route subcutaneous
Candida albicans [32] = experiment: as §1, with “at 3” for “at 20”, “mg/kg, sc” for “mg/kg, iv”, “administered 7” for “administered 18”, “and 24” for “and 42”; format: functional; design: scale not given: the % may be the effect or the level left; conditions: route subcutaneous

## COC(=O)C1=CC[C@@]23CC[C@@H]([C@@](C)(/C=C/C=C(\C)C(=O)[O-])OC2=O)[C@@]3(OC(C)=O)CC1.[K+] [POTASSIUM PSEUDOLARATE B]
Candida albicans [1]
  inhibition zone (IZ): 7 mm
Aspergillus fumigatus
  inhibition zone (IZ): 3 mm
[2]
  inhibition zone (IZ): 7 mm
Nannizzia gypsea
  inhibition zone (IZ): 7 mm
Candida albicans [3]
  inhibition zone (IZ): 7 mm
Candida albicans [4]
  inhibition zone (IZ): 7 mm
Starmerella magnoliae
  inhibition zone (IZ): <1 mm
Candida parapsilosis [5]
  inhibition zone (IZ): 7 mm
Candida albicans [6]
  inhibition zone (IZ): 7 mm
Candida tropicalis [7]
  inhibition zone (IZ): 7 mm
Candida tropicalis [8]
  inhibition zone (IZ): 7 mm
Candida tropicalis [9]
  inhibition zone (IZ): >12 mm
Yarrowia deformans [10]
  inhibition zone (IZ): 7 mm
Torula [11]
  inhibition zone (IZ): 3 mm
Candida albicans [12]
  MFC: 6.25 µg/mL
  MIC: 3.12 µg/mL
Candida albicans [13]
  MFC: 6.25 µg/mL
  MIC: 1.56 µg/mL
Candida parapsilosis [14]
  MFC: 25 µg/mL
  MIC: 3.12 µg/mL
Candida albicans [15]
  MFC: 6.25 µg/mL
  MIC: 3.12 µg/mL
Candida tropicalis [16]
  MFC: 6.25 µg/mL
  MIC: 1.56 µg/mL
Candida tropicalis [17]
  MFC: 6.25 µg/mL
  MIC: 3.12 µg/mL
Candida tropicalis [18]
  MFC: 6.25 µg/mL
  MIC: 0.78 µg/mL
Yarrowia deformans [19]
  MFC: 12.5 µg/mL
  MIC: 0.78 µg/mL
Torula [20]
  MFC: 12.5 µg/mL
  MIC: 12.5 µg/mL
Mus musculus [21]
  Activity: 24.2 g
Mus musculus [22]
  Activity: 25.4 g
Mus musculus [23]
  Activity: 25.6 g

## COC(=O)C1=CC[C@@]23CC[C@@H]([C@@](C)(/C=C/C=C(\C)C(=O)O)OC2=O)[C@@]3(OC(C)=O)CC1 [PSEUDOLARIC ACID B]
Candida albicans [1]; Candida albicans, read-out: IZ
  zone of inhibition at 1000 µg/mL: 7 mm
Aspergillus fumigatus; Aspergillus fumigatus, read-out: IZ
  zone of inhibition at 1000 µg/mL: 3 mm
[2]; Trichophyton mentagrophytes, read-out: IZ
  zone of inhibition at 1000 µg/mL: 7 mm
Nannizzia gypsea; Nannizzia gypsea, read-out: IZ
  zone of inhibition at 1000 µg/mL: 7 mm
[24]
  zone of inhibition at 1000 µg/mL: 1 mm
Candida albicans [3]; Candida albicans, B311, read-out: IZ
  zone of inhibition at 1000 µg/mL: 7 mm
Candida albicans [4]; Candida albicans, ATCC 10231, read-out: IZ
  zone of inhibition at 1000 µg/mL: 7 mm
Starmerella magnoliae; ATCC 12573, read-out: IZ
  zone of inhibition at 1000 µg/mL: < 1 mm
Candida parapsilosis [5]; Lodderomyces parapsilosis, ATCC 20224, read-out: IZ
  zone of inhibition at 1000 µg/mL: 7 mm
Candida albicans [6]; Candida albicans, read-out: IZ
  zone of inhibition at 1000 µg/mL: > 12 mm
Candida tropicalis [7]; Candida tropicalis, ATCC 20326, read-out: IZ
  zone of inhibition at 1000 µg/mL: 7 mm
Candida tropicalis [8]; Candida tropicalis, ATCC 20021, read-out: IZ
  zone of inhibition at 1000 µg/mL: 7 mm
Candida tropicalis [9]; Candida tropicalis, read-out: IZ
  zone of inhibition at 1000 µg/mL: > 12 mm
Yarrowia deformans [10]; Yarrowia deformans, ATCC 20225, read-out: IZ
  zone of inhibition at 1000 µg/mL: 7 mm
Torula [11]; Torula, NRRL 7495, read-out: IZ
  zone of inhibition at 1000 µg/mL: 3 mm
Candida albicans [12]
  MFC: 3.12 µg/mL (≈ 7.21 µM)
  MIC: 1.56 µg/mL (≈ 3.61 µM)
Candida albicans [13]
  MFC: 3.12 µg/mL (≈ 7.21 µM)
  MIC: 1.56 µg/mL (≈ 3.61 µM)
Candida parapsilosis [14]
  MFC: 12.5 µg/mL (≈ 28.9 µM)
  MIC: 3.12 µg/mL (≈ 7.21 µM)
Candida albicans [15]
  MFC: 6.25 µg/mL (≈ 14.5 µM)
  MIC: 1.56 µg/mL (≈ 3.61 µM)
Candida tropicalis [16]
  MFC: 3.12 µg/mL (≈ 7.21 µM)
  MIC: 1.56 µg/mL (≈ 3.61 µM)
Candida tropicalis [17]
  MFC: 3.12 µg/mL (≈ 7.21 µM)
  MIC: 1.56 µg/mL (≈ 3.61 µM)
Candida tropicalis [18]
  MFC: 6.25 µg/mL (≈ 14.5 µM)
  MIC: 0.78 µg/mL (≈ 1.8 µM)
Yarrowia deformans [19]
  MFC: 1.56 µg/mL (≈ 3.61 µM)
  MIC: 0.78 µg/mL (≈ 1.8 µM)
Torula [20]
  MFC: 12.5 µg/mL (≈ 28.9 µM)
  MIC: 12.5 µg/mL (≈ 28.9 µM)
[25]
  LD50: 423 mg/kg
[26]
  LD50: 316 mg/kg
Mus musculus [27]
  Activity: Non-toxic
Mus musculus [21]
  Activity: 22.5 g
Mus musculus [22]
  Activity: 24.1 g
Mus musculus [23]
  Activity: 24.7 g
Candida albicans [28]
  Activity: 59.9%
Candida albicans [29]
  Activity: 95.34%
Candida albicans [30]
  Activity: 76.7%
Candida albicans [31]
  Activity: 75%
Candida albicans [32]
  Activity: 70.27%
